Test results reported in patent publication US11414378B2, “Anti-fungals compounds targeting the synthesis of fungal sphingolipids” (THE RESEARCH FOUNDATION FOR THE STATE UNIVERSITY OF NEW YORK, priority 2017, dated 2022).
In brackets after ≈: the same amount, converted by molar mass.

Legend:
C. neoformans [1] = assay: In vitro susceptibility (MIC80) assay; format: cell-based; conditions: Cryptococcus neoformans; lowest concentration that inhibited 80% of growth; YNB pH 7.0, HEPES, 37° C., 5% CO2
Experimental: MICs was determined following the methods of the Clinical and Laboratory Standards Institutes (CLSI) with modifications. Yeast Nitrogen Base (YNB) medium (pH 7.0, 0.2% glucose) buffered with HEPES was used for MIC studies. […] The compound was serially diluted from 16 to 0.03 μg/ml, in a 96-well plate. The inoculum was prepared as described in the CLSI protocol M27A3 guidelines. The plates were incubated at 37° C. with 5% CO2 for 24 to 72 h and the optical density was measure at 450 nm. The MICs was determined as the lowest concentration of the compound that inhibited 80% of growth compared to the control.

C. neoformans cells = assay: In vitro killing activity (K100) assay; format: cell-based, Cryptococcus neoformans; conditions: Cryptococcus neoformans; minimum concentration that kills 100% of C. neoformans cells in 48 h
Experimental: C. neoformans cells from a culture grown overnight were washed in PBS and resuspended in YNB buffered with HEPES at pH 7.4. The cells were counted, and 2×10^4 cells were incubated with different concentration of compounds in a final volume of 10 ml with a final concentration of 0.5% DMSO. The tubes were then incubated at 37° C. with 5% CO2 on a rotary shaker at 200 rpm. Aliquots were taken at time points and diluted, and […] were plated onto Yeast Extract-Peptone-Dextrose (YPD) plates. YPD plates were incubated in a 30° C. incubator and after 48 h, the numbers of CFU were counted and recorded.

C. neoformans [2] = assay: In vivo efficacy evaluation (survival study) in an animal model; design: species or system CBA/J mice; conditions: 20 mg/kg/day orally (gavage); mice infected intranasally with 5×10^5 C. neoformans cells
Experimental: For survival study, 4-week old CBA/J (Envigo) male mice were used. They were divided as ten mice for each treatment or control group. Mice were infected intranasally with 20 μl of a suspension containing 5×10^5 C. neoformans cells and subsequently treated orally with 20 mg/kg/day of compound A15 and fluconazole as drug control in a final volume of 100 μl of PEG30% in a saline buffer. The untreated control group mice received 100 μl of PEG30% in a saline buffer. Gavage was used as route of administration. At the end of the experiment, 80% of the mice treated with compound A15 survived whereas, only 30% of the mice treated with fluconazole survived. Mice were fed ad libitum and monitored every day for discomfort and meningitis signs. Mice showing weight loss, lethargy, tremor or inability to reach food or water were sacrificed and survival was counted until that day (see FIG. 2).

C. neoformans [3] = assay: In vitro susceptibility testing (MIC / IC80); format: cell-based, Cryptococcus neoformans; conditions: Cryptococcus neoformans; Tables 1-3
Experimental: Minimal inhibitory concentration (MIC) was determined following the methods of the Clinical Laboratory Standards Institutes (CLSI) with modifications. MIC studies used either RPMI or YNB medium (pH 7.0, 0.2% glucose) buffered with HEPES. […] The compound was serially diluted from 32 to 0.03 μg/ml or 19 to 0.02 μg/ml respectively in a 96 well plate with the respective medium. The yeast inoculum was prepared as described in the CLSI protocol M27-A3 guidelines. Plates were incubated at 37° C. and in the presence of 5% CO2 for 24-96 hours. Against all fungal isolates used in the initial susceptibility screen, the MICs were determined as the lowest concentration of the drug that inhibited 50% of growth compared to the control. MIC80 and MIC100, whose drug concentrations inhibited 80% and 100% growth compared to the control respectively, were also determined. For antibacterial activity, E. coli DH5a and P. aeruginosa PA14 were grown overnight in Luria Bertani (LB) broth at 30° C. The cells were washed with PBS and counted. Then, 300 μL from 2×10^8 cells/mL was spreaded onto LB agar plate using a hockey stick glass spreader. The plate was dried, and wells were punched out using a cut tip. Fifty microliters of different drug concentration was added to the well. The plate was then incubated at 30° C. for 24 hours.

C. neoformans [4] = assay: In vitro killing assay (killing curve, Kapp, 48H killing); format: cell-based, Cryptococcus neoformans; conditions: 48H
Experimental: From an overnight culture, C. neoformans cells were washed in PBS, resuspended in YNB buffered with HEPES at pH 7.4. Cells were counted and 2×10^4 cells were incubated with either 1, 2 or 4 μg/ml of compound in a final volume of 10 ml. Tubes were then incubated at 37° C. in the presence of 5% CO2 on a rotary shaker at 200 rpm. At the illustrated time points, aliquots were taken and diluted and 100 μL was plated onto yeast peptone dextrose (YPD) plates. YPD plates were incubated in a 30° C. incubator and, after 72 hours, colony forming units (CFU) were counted and recorded.

A549 = A549 toxicity; format: cell-based; conditions: Tables 1-3
HepG2 = HepG2 toxicity; format: cell-based; conditions: Tables 1-3

With `COCc1ccc(C(=O)N/N=C/c2cc(Br)cc(Br)c2O)cc1` [Compound A15, 4-Methoxymethyl-N′-(3,5-dibromo-2-hydroxybenzylidene)benzohydrazide] the MIC80 (C. neoformans [1]) was 0.007 µg/mL (≈ 0.0158 µM), the MFC (C. neoformans cells) was 0.03 µg/mL (≈ 0.0679 µM) and the “mice survived at the end of the experiment” value (C. neoformans [2]) was 80%.

`[N-]=[N+]=Nc1ccc(C(=O)N/N=C/c2cc(Br)cc(Br)c2O)cc1` [Compound A45, 4-Azido-N′-(3,5-dibromo-2-hydroxybenzylidene)benzohydrazide] showed an MIC80 (C. neoformans [1]) of 0.06 µg/mL (≈ 0.137 µM) and a melting point of 193 to 197 °C.

In the case of `O=C(N/N=C/c1ccc(Br)cc1O)c1cc(Br)cc(Br)c1O` [drawing 79], the IC80 (C. neoformans [3]) is reported as 0.06 µg/mL (≈ 0.122 µM), the “Killing assay 48H (μg/mL)” value (C. neoformans [4]) is reported as “Fungistatic” and the A549 (A549) is reported as 32 µg/mL. The HepG2 (HepG2) was 32 µg/mL.

With `OC(Cn1cncn1)(Cn1cncn1)c1ccc(F)cc1F` [fluconazole, reference compound] the “mice survived at the end of the experiment” value (C. neoformans [2]) was 30%.
